Reference: ChEMBL document CHEMBL1144967, “Protective effect of imidazolopyrazinone antioxidants on ischemia/reperfusion injury” (2003)

What was measured:
[1] = Antioxidant efficiency of compounds was evaluated by the lag phase duration until onset of linoleate peroxidation induced by AAPH
Cricetinae gen. sp. = experiment: Ability to protect microvascular damages in ischemia/reperfusion (in vivo) was determined by measuring the inhibition of leaky sites, 30-min after the start of reperfusion at 30 mg/kg; format: functional, Cricetulus griseus; details: 0.5 h

Compound: Cc1ccc(-c2nc3cnccn3c2O)cc1
- Lag time [1]: 78.7 min
- inhibition in vivo at 30 mg/kg (Cricetinae gen. sp.): 67%

Compound: Oc1c(-c2ccc(-c3ccccc3)cc2)nc2cnccn12
- Lag time [1]: 77.5 min
- inhibition in vivo at 30 mg/kg (Cricetinae gen. sp.): 71%

Compound: Oc1c(-c2ccc(Cl)cc2)nc2cnccn12
- Lag time [1]: 111 min
- inhibition in vivo at 30 mg/kg (Cricetinae gen. sp.): 82%

Compound: Oc1c(-c2ccccc2)nc2cnccn12
- Lag time [1]: 146 min
- inhibition in vivo at 30 mg/kg (Cricetinae gen. sp.): 79%

Compound: Oc1c(-c2ccc3ccccc3c2)nc2cnccn12
- Lag time [1]: 74.9 min
- inhibition in vivo at 30 mg/kg (Cricetinae gen. sp.): 57%

Compound: Cc1c(C)c2c(c(C)c1O)CCC(C)(C(=O)O)O2 (stereo not drawn)
- Lag time [1]: 128 min

Compound: Cc1nc2cnccn2c1O
- Lag time [1]: 134 min
- inhibition in vivo at 30 mg/kg (Cricetinae gen. sp.): 49%

Compound: COc1ccc(-c2nc3cnccn3c2O)cc1
- Lag time [1]: 79.6 min
- inhibition in vivo at 30 mg/kg (Cricetinae gen. sp.): 85%

Compound: Oc1c(-c2ccc(F)cc2)nc2cnccn12
- Lag time [1]: 122 min
- inhibition in vivo at 30 mg/kg (Cricetinae gen. sp.): 37%

Compound: COc1cc(C(C)=O)ccc1O [APOCYNIN]
- inhibition in vivo at 30 mg/kg (Cricetinae gen. sp.): 59%
